In patent publication US20240299408A1, “METHODS OF TREATING 4-REPEAT TAUOPATHIES” (Woolsey Pharmaceuticals, Inc., priority 2020, published 2024):
Structures can show the parent of a compound that is named as a salt.

Assays:
[1] = system: PSP patients; conditions: cited from earlier work; for effect or benefit in clinical trial in PSP: PSP patients (riluzole: PSP and MSA)
[2] = in vivo, 1-hydroxy metabolite; cited from earlier work
[3] = system: subjects with probable or possible PSP; experiment: treatment of probable or possible PSP subjects with fasudil, assessments at six months and one year versus baseline and historical controls; format: in vivo, human

Molecule | effect or benefit in clinical trial in PSP [1] | further results
O=C(Oc1ccccc1C(=O)O)c1ccccc1O [Salsalate] | failed | 
COC1=C(OC)C(=O)C(C/C=C(\C)CC/C=C(\C)CC/C=C(\C)CC/C=C(\C)CC/C=C(\C)CC/C=C(\C)CC/C=C(\C)CC/C=C(\C)CC/C=C(\C)CCC=C(C)C)=C(C)C1=O [coenzyme Q10] | failed to provide benefit | 
O=S(=O)(c1cccc2c(O)nccc12)N1CCCNCC1 [M3] |  | half-life [2]: about 8 hours
[Li] [lithium] |  | tolerability in open-label trial in PSP ([1]; open-label trial in PSP): terminated due to poor tolerability
O=S(=O)(c1cccc2cnccc12)N1CCCNCC1 [fasudil, Hexahydro-1-(5-isoquinolinesulfonyl)-1H-1,4-diazepine monohydrochloride hemihydrate] |  | oculomotor and sleep parameters ([3]; fasudil 180 mg/day): improve; PSP-RS increase over a year ([3]; fasudil 180 mg/day (60 mg tid), average is closer to 10): ≤ 5 point
O=c1sn(-c2cccc3ccccc23)c(=O)n1Cc1ccccc1 [tideglusib] | failed to show benefit | 
Nc1nc2ccc(OC(F)(F)F)cc2s1 [riluzole] | failed to demonstrate effects | 
C=CC1O[C@H]2C[C@H]3OC[C@@]3(OC(C)=O)[C@H]3[C@H](OC(=O)c4ccccc4)[C@]4(O)C[C@H](OC(=O)[C@H](O)[C@H](CC(C)C)NC(=O)OC(C)(C)C)C(C)=C([C@H](OC(C)=O)[C@H](O1)[C@]23C)C4(C)C (stereo partly drawn) [TPI 287] | failed to show any effect | 
CC[C@H](C)[C@H](NC(=O)[C@H](CO)NC(=O)[C@@H](NC(=O)[C@@H]1CCCN1C(=O)[C@H](C)NC(=O)[C@@H](N)CC(N)=O)C(C)C)C(=O)N1CCC[C@H]1C(=O)N[C@@H](CCC(N)=O)C(=O)O [Davunetide] | not shown not to be effective | 
ABBV-8E12: humanized anti-tau monoclonal antibody (antibody, chains of the INN, looked up, V domains shown) VH: EVKVVESGGGLVQPGGSMKLSCVVSGFTFSNYWVNWVRQAPGKGLEWVAQIRLKSDNYATHYEESVKGRFTISRDDSKSSVYLQMNNLRAEDSGIYYCTNWEDYWGQGTTVTVSS VL: DIVLTQSPDSLAVSLGERATISCRASQSVSTSRYSYIHWYQQKPGQPPKLLIKYASNLESGVPSRFSGSGSGTDFTLNIHPLEPEDFATYYCHHSWEIPLTFGQGTKLEIK | failed to demonstrate an effect | 
Gosuranemab: humanized monoclonal antibody that targets N-terminal tau (antibody, chains of the INN, looked up, V domains shown) VH: EVHLVESGGALVKPGGSLRLSCAASGFSFSKYGMSWVRQAPGKGLEWVATISSSGSRTYYPDSVKGRFTISRDNAKNTLYLQMNSLRAEDTAMYYCSISWDGAMDYWGQGTTVTVSS VL: DVVMTQSPLSLPVTLGQPASISCKSSQSIVHSNGNTYLEWYLQKPGQSPQLLVYKVSNRFSGVPDRFSGSGSGTDFTLKISRVEAEDVGTYYCFQGSLVPWAFGGGTKVEIK | no effect | 
